Measurements as given in ChEMBL document CHEMBL2074262, “Molecular identification and characterization of novel members of the human organic anion transporter (OATP) family” (Biochem Biophys Res Commun, 2000).

Tests used:
Type in all cases: functional, cell-based
[1] = target: T1, Solute carrier organic anion transporter family member 4A1 (Homo sapiens, UniProt Q96BD0); experiment: TP_TRANSPORTER: uptake in OATP-E-expressing HEK293 cells
T1 sequence (Q96BD0 whole entry): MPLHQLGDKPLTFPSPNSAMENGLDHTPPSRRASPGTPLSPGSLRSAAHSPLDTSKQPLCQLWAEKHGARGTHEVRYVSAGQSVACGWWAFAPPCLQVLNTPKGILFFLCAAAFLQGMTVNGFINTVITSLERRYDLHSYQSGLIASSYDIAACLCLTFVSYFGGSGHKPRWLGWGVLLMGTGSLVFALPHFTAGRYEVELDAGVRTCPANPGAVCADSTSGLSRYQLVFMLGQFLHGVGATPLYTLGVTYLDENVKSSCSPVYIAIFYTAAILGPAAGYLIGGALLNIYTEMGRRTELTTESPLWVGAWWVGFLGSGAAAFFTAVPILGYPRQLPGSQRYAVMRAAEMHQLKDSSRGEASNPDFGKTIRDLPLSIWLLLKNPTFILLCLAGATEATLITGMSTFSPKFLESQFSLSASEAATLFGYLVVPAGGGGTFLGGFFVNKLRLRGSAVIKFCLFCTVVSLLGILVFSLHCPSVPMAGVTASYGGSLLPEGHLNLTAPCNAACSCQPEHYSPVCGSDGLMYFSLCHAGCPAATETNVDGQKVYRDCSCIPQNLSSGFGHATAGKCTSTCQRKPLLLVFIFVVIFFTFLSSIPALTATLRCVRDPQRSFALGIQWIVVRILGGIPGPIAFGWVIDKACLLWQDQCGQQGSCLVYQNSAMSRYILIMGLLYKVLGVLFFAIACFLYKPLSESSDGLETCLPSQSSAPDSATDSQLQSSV

[2] = target: T2, Solute carrier organic anion transporter family member 2B1 (Homo sapiens, UniProt O94956); experiment: TP_TRANSPORTER: uptake in OATP-B-expressing HEK293 cells
T2 sequence (O94956 whole entry): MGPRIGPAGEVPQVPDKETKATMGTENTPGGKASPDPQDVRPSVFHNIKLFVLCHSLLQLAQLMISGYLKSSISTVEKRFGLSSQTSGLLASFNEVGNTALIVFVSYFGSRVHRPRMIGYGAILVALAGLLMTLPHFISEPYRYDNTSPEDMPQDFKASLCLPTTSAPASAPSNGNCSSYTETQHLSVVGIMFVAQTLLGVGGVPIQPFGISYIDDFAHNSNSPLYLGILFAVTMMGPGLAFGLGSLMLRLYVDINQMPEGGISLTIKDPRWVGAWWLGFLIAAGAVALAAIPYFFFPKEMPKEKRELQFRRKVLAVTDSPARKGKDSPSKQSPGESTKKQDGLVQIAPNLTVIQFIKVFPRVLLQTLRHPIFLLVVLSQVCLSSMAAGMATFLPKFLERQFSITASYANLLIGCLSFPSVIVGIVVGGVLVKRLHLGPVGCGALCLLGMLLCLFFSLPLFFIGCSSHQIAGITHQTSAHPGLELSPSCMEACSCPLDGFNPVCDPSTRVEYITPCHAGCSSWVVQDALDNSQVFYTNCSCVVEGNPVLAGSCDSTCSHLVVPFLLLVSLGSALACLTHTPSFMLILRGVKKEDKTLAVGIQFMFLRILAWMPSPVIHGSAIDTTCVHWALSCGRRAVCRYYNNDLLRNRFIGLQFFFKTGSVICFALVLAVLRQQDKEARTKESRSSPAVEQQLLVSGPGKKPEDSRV

[3] = target: T3, Solute carrier organic anion transporter family member 3A1 (Homo sapiens, UniProt Q9UIG8); experiment: TP_TRANSPORTER: uptake in OATP-D-expressing HEK293 cells
T3 sequence (Q9UIG8 whole entry): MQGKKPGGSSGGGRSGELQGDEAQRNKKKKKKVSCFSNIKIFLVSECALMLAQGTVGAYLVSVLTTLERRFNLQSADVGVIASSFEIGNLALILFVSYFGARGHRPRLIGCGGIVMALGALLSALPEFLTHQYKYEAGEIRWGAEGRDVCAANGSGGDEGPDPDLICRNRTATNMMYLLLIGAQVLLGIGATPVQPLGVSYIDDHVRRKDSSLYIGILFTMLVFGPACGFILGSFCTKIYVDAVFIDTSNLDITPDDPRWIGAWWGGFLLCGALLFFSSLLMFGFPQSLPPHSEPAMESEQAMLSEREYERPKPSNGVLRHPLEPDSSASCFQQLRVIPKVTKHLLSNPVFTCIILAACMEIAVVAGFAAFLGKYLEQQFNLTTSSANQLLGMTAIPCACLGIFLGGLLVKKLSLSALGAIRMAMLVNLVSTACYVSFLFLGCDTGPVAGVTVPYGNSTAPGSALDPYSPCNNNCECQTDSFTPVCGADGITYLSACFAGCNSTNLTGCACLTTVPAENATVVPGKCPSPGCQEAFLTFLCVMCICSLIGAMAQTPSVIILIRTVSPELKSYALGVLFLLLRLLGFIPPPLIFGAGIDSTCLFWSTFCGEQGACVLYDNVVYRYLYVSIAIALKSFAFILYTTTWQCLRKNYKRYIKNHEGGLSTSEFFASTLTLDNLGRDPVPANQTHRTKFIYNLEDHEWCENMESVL

[4] = target: T4, Solute carrier organic anion transporter family member 1B1 (Homo sapiens, UniProt Q9Y6L6); experiment: TP_TRANSPORTER: uptake in OATP-C-expressing HEK293 cells
T4 sequence (Q9Y6L6 whole entry): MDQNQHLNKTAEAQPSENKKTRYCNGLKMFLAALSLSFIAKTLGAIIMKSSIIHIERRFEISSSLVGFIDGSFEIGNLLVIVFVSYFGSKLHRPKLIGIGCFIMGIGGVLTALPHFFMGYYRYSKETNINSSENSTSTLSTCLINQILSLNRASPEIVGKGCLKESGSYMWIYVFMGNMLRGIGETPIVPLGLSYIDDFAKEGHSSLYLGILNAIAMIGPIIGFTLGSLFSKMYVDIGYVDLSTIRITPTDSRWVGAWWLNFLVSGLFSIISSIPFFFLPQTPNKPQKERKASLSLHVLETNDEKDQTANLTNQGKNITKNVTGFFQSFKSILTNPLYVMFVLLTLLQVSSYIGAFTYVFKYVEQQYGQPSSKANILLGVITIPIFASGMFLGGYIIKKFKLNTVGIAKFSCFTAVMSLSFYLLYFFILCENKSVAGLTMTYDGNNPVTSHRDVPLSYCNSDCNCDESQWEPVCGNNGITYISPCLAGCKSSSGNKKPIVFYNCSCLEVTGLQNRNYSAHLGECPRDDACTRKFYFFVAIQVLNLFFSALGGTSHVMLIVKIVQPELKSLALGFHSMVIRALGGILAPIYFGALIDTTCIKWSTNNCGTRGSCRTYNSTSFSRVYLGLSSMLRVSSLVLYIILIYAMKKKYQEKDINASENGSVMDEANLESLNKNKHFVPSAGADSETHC

Row | Structure (SMILES) | Activity [1] | Activity [2] | Activity [3] | Activity [4]
1 | C[C@]12CC[C@@H]3c4ccc(O)cc4CC[C@H]3[C@@H]1CC[C@@H]2O[C@@H]1O[C@H](C(=O)O)[C@@H](O)[C@H](O)[C@H]1O [ESTRADIOL 17B GLUCURONIDE] | substrate [+] | – | – | –
2 | CCCCC[C@H](O)/C=C/[C@H]1[C@H](O)CC(=O)[C@@H]1C/C=C\CCCC(=O)O [DINOPROSTONE] | substrate [+] | substrate [+] | substrate [+] | substrate [+]
3 | C[C@]12CC[C@@H]3c4ccc(OS(=O)(=O)O)cc4CC[C@H]3[C@@H]1CCC2=O [ESTRONE SULFURIC ACID] | substrate [+] | – | substrate [+] | –
4 | CC1(C)S[C@@H]2[C@H](NC(=O)Cc3ccccc3)C(=O)N2[C@H]1C(=O)O [PENICILLIN G] | substrate [+] | substrate [+] | substrate [+] | substrate [+]
